From patent US20230218657A1, “COMPOSITIONS, THEIR USES IN THERAPY AND METHODS THEREOF” (National University of Singapore, priority 2020, published 2023) come the findings set out here.

“Also recorded” adds a separate entry of the source.

Holding throughout (assay type): in vivo
The subject of assay [1] is apoE-/- mice. Kind of assay: Footpad tissue edema / swelling observed macroscopically in apoE-/- mice. The source says:
(§1) To evaluate the effect of cyclodextrin on secondary lymphedema, an animal model of lymphatic insufficiency that mimics human pathophysiology of lymphedema was used, e.g adipose tissue remodeling, lipid accumulation, inflammation and fibrosis. This mouse model can be apoE lipoprotein E deficient mice. […] It is believed that this lymphatic insufficiency leads to adipose tissue expansion and then loss and fibrosis as also observed in human secondary lymphedema. To confirm this, female apoE-/- mice were treated with 2 g/kg body of cyclodextrin […] subcutaneously or vehicle alone (saline) subcutaneously every alternative day for a total of 2, 4 or 8 doses. Mice were euthanized, tissue swelling was observed macroscopically and lymphatic transport was examined by following up the transport of FITC dextran from the front footpad to the draining lymph nodes. Skin tissues was also examined histologically for lipid content (Oil red O staining).
FIG. 1 illustrates images of footpads from female wild-type (WT) or apoE-/-mice after receiving subcutaneous injection of cyclodextrin (CD; 2 g/kg body weight) or saline (control, NT) every alternative day for a total of 4 doses and harvested when mice were 17 weeks old on high fat diet. Swelling of the footpad of the mice was observed macroscopically (arrow heads: swelling region).

Assay [2] deals with apoE-/- mice. Kind of assay: Oil red O staining of footpad skin for lipid accumulation. Particulars: 2 g/kg subcutaneous, alternate days, 4 doses; female apoE-/- mice, 17 weeks old, high fat diet; vs saline.
From the text: as §1
FIG. 2 illustrates microscopic images of female WT or apoE-/- mice after receiving subcutaneous injection of cyclodextrin (CD; 2 g/kg body weight) or saline (control, NT) every alternative day for a total of 4 doses and harvested when mice were 17 weeks old on high fat diet. Section of footpad skin were stained for neutral lipid with Oil red O (red staining) to identify lipid accumulation in the tissue.

The subject of assay [3] is apoE-/- mice. The assay is described as follows: Lymphatic transport of FITC dextran from footpad to draining lymph node.
From the text: as §1
FIG. 3 plots the relative fluorescence in the lymph nodes of respective female WT or apoE-/- mice after receiving subcutaneous injection of cyclodextrin (CD; 2 g/kg body weight) or Saline (control, NT) every alternative day for a total of 4 doses. The mice were harvested when the mice were 17 weeks old on high fat diet. Lymphatic drainage was assessed by measuring the transport of fluorescent dextran from the footpad (site of injection) to the draining lymph node.
FIG. 4 plots the relative fluorescence in the lymph nodes of the respective mice under a different dosage regime.

The subject of assay [4] is apoE-/- mice. The assay is described as follows: Total cholesterol in front footpad and plasma cholesterol. The source says:
Cyclodextrin was administrated subcutaneously alternate days.

The subject of assay [5] is apoE-/- mice. Kind of assay: Masson's Trichrome staining of back skin (fibrosis, collagen deposition). Particulars: 17 weeks old, particularly the 8 doses regime. The method, then: (§2) The formulation was assessed if it can reverses some tissue changes associated with lymphedema including fibrosis and inflammation.
Collagen was stained in blue, muscle and cytoplasm was stained in red and the nucleus was stained in black.

In assay [6] the test system is apoE-/- mice. The assay is described as follows: CD68 immunofluorescence staining of back skin (inflammation, macrophage infiltration). Particulars: 17 weeks old, particularly the 8 doses regime. The protocol:
as §2
CD68 is a pan-macrophage marker, perilipin was used to identify adipocytes and DAPI stains for the nucleus.

Setting [7] is: 8 doses, apoE-/- mice at 42 weeks of age (greater severity).

Turning to cyclodextrin, the “tissue edema / footpad swelling” value in assay [1] (2 g/kg subcutaneous, alternate days, 4 doses, female apoE-/- mice, 17 weeks old, high fat diet, vs saline) is recorded as “improved significantly tissue edema in the footpad; also recorded: decreased footpad swelling”. For the same substance, the tissue swelling result in assay [1] (setting [7]) was “not able to improve lymphatic function and ameliorate tissue changes such as tissue swelling”. The reducing lymphedema entry in assay [1] (intradermal injection, animal model of lymphedema (summary statement)) is on record as “effective in reducing lymphedema”. Also, in assay [2], the “lipid accumulation in footpad skin (Oil red O staining)” value was “decreased lipid accumulation; also recorded: decreased accumulation of lipids”. The lymphatic function entry is recorded as “improved lymphatic function but in lesser extent compared to 4 doses; also recorded: sufficient to improve lymphatic function” in assay [3] (2 g/kg subcutaneous, alternate days, 2 doses, female apoE-/- mice, 17 weeks old); “did not further enhance lymphatic function; also recorded: did not improve further lymphatic function” in assay [3] (2 g/kg subcutaneous, alternate days, 8 doses, female apoE-/- mice, 17 weeks old, compared to 4 doses); “not able to improve lymphatic function” in assay [3] (setting [7]). Further, the “lymphatic transport / lymphatic function” value in assay [3] (2 g/kg subcutaneous, alternate days, 4 doses, female apoE-/- mice, 17 weeks old) is “completely restored lymphatic transport; also recorded: restoring completely lymphatic function; also recorded: completely restored it”. In addition, the plasma cholesterol levels result in assay [4] (apoE-/- mice treated with cyclodextrin) is “does not affect plasma cholesterol levels”. In assay [4] (subcutaneous, alternate days, 4 or 8 doses, apoE-/- mice, 17 weeks old), the “tissue cholesterol (total cholesterol in front footpad)” value was “reduces tissue cholesterol; also recorded: decreased total cholesterol levels in the front foot pad”. Besides, in assay [5], the “fibrosis (collagen deposition) in back skin” value was “reduces fibrosis”. In addition, the “inflammation (infiltration of macrophages in adipose tissue, CD68) in back skin” value in assay [6] was “reduces fibrosis (FIG. 7A) and inflammation; also recorded: the extent of macrophage accumulation and crown-like structures (white boxes) decreases”.
